Reference: ChEMBL document CHEMBL3124800, “HTS followed by NMR based counterscreening. Discovery and optimization of pyrimidones as reversible and competitive inhibitors of xanthine oxidase” (Bioorg Med Chem Lett, 2014)
≈ marks a conversion by molar mass, not a printed value.

What was measured:
[1] = Apparent permeability across basolateral side to apical side in human Caco2 cells; settings: Caco-2
[2] = Apparent permeability across apical side to basolateral side in human Caco2 cells; settings: Caco-2
[3] = Intrinsic clearance in human liver microsomes; format: ADME; settings: read-out: CLH
[4] = Solubility of the compound in phosphate buffer at pH 7.4
[5] = molecular target: T1, Xanthine dehydrogenase/oxidase (Bos taurus, UniProt P80457); assay: Inhibition of bovine xanthine oxidase
T1 sequence (P80457 whole entry): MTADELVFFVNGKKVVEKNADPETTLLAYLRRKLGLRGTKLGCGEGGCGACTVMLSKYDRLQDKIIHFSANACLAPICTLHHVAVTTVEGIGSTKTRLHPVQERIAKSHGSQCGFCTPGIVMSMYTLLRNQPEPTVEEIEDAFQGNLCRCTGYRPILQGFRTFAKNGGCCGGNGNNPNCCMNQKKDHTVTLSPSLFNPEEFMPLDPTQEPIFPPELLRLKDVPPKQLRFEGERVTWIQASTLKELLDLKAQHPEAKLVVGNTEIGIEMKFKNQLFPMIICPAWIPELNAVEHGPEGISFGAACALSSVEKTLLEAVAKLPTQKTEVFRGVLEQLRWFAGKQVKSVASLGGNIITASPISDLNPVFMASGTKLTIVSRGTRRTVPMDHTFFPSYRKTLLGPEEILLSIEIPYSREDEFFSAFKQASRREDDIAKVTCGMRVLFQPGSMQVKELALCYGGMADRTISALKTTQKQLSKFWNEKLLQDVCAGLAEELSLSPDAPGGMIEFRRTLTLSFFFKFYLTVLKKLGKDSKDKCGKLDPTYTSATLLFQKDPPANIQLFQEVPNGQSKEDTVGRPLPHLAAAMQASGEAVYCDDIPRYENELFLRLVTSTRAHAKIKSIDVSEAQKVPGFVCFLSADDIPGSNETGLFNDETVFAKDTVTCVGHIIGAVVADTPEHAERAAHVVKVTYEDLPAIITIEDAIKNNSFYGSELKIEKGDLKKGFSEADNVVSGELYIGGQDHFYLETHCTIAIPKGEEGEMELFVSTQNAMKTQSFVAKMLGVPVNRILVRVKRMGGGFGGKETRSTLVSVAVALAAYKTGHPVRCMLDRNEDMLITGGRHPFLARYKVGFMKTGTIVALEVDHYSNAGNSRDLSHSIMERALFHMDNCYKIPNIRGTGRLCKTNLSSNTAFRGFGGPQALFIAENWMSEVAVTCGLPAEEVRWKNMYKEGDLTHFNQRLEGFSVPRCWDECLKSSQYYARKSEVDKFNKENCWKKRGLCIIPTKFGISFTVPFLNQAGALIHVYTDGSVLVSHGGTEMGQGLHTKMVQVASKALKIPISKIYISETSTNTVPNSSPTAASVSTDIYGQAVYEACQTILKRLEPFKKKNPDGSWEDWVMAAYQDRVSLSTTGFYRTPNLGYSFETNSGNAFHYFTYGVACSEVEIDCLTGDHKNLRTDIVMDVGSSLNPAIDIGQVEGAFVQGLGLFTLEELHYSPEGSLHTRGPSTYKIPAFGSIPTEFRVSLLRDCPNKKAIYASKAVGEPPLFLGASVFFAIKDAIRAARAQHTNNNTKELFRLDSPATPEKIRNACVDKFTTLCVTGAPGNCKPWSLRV

[6] = molecular target: T1, Xanthine dehydrogenase/oxidase; assay: Reversible inhibition of bovine xanthine oxidase; settings: cattle
[7] = molecular target: T1, Xanthine dehydrogenase/oxidase; assay: Competitive inhibition of bovine xanthine oxidase
[8] = molecular target: Xanthine dehydrogenase/oxidase (Homo sapiens, UniProt P47989)
Chain of Xanthine dehydrogenase/oxidase (Homo sapiens, UniProt P47989) (P47989 whole entry): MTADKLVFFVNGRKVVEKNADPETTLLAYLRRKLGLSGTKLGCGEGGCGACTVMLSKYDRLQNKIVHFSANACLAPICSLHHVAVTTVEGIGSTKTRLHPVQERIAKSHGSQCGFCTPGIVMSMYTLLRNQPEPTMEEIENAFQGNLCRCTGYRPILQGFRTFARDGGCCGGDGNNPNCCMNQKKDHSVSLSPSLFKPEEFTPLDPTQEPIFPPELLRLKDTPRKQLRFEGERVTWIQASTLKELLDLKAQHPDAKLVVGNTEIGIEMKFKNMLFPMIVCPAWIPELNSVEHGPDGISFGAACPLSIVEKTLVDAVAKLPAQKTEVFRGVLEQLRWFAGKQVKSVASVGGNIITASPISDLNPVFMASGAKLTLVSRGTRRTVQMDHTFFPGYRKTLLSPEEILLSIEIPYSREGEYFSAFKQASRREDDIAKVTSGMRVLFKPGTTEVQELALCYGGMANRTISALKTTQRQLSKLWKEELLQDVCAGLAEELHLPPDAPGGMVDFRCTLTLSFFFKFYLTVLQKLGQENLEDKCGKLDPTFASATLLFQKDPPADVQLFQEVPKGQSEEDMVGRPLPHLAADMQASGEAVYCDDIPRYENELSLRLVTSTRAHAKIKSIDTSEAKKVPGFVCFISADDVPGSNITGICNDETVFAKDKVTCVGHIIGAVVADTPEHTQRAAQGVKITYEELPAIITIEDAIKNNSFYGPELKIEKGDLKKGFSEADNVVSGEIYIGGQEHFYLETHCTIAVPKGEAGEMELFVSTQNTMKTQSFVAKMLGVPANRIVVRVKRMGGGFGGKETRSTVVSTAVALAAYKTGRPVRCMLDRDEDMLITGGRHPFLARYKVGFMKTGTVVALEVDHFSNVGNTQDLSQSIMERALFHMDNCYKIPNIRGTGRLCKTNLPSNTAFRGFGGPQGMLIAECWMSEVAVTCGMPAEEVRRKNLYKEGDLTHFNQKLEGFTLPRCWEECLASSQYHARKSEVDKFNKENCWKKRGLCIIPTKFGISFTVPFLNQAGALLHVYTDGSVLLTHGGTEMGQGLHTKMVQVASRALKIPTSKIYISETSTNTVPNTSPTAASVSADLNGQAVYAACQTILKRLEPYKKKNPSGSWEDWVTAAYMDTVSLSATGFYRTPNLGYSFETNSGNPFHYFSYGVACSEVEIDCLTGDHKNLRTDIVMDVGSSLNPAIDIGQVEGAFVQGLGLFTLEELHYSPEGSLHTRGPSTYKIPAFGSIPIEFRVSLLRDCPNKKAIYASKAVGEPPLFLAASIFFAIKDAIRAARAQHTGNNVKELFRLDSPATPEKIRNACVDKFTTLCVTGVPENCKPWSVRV

Hepatocyte = assay: Intrinsic clearance in human hepatocytes assessed per million cells; format: ADME, cell-based
[9] = Oral bioavailability in Han Wistar rat at 6 umol/kg; format: ADME, organism-based; settings: in vivo
[10] = Cmax in Han Wistar rat at 6 umol/kg, po; format: ADME, organism-based; design: dose 6 umol/kg, route oral; settings: in vivo
Rattus norvegicus [11] = assay: Volume of distribution at steady state in Han Wistar rat at […]; format: ADME, organism-based; settings: in vivo
[12] = Half life in Han Wistar rat at 1 umol/kg, iv; format: ADME, organism-based; settings: in vivo
[13] = Clearance in Han Wistar rat at 1 umol/kg, iv; format: ADME, organism-based; settings: in vivo
Plasma = assay: Antihyperuricemic activity in potassium oxonate-induced hyperuricemic Sprague-Dawley rat model assessed as decrease of uric acid level in serum at 30 mg/kg, po measured after 2 hrs relative to vehicle-treated control; format: functional; design: scale not given: the % may be the effect or the level left
Rattus norvegicus [14] = assay: Antihyperuricemic activity in potassium oxonate-induced hyperuricemic Sprague-Dawley rat model assessed as decrease of uric acid level in serum at 30 mg/kg, po measured after 1 hr relative to vehicle-treated control; format: functional; design: scale not given: the % may be the effect or the level left
[15] = Plasma concentration in potassium oxonate-induced hyperuricemic Sprague-Dawley rat model at 10 mg/kg, po measured after 2 hrs; format: ADME, organism-based; design: dose 10 mg/kg, route oral
Rattus norvegicus [16] = assay: Antihyperuricemic activity in potassium oxonate-induced hyperuricemic Sprague-Dawley rat model assessed as decrease of uric acid level in serum at 10 mg/kg, po measured after 1 hr relative to vehicle-treated control; format: functional; design: scale not given: the % may be the effect or the level left
Rattus norvegicus [17] = assay: Antihyperuricemic activity in potassium oxonate-induced hyperuricemic Sprague-Dawley rat model assessed as decrease of uric acid level in serum at 10 mg/kg, po measured after 2 hrs relative to vehicle-treated control; format: functional; design: scale not given: the % may be the effect or the level left
[18] = molecular target: Xanthine dehydrogenase/oxidase (Rattus norvegicus, UniProt P22985); assay: Inhibition of rat xanthine oxidase
Chain of Xanthine dehydrogenase/oxidase (Rattus norvegicus, UniProt P22985) (P22985 whole entry): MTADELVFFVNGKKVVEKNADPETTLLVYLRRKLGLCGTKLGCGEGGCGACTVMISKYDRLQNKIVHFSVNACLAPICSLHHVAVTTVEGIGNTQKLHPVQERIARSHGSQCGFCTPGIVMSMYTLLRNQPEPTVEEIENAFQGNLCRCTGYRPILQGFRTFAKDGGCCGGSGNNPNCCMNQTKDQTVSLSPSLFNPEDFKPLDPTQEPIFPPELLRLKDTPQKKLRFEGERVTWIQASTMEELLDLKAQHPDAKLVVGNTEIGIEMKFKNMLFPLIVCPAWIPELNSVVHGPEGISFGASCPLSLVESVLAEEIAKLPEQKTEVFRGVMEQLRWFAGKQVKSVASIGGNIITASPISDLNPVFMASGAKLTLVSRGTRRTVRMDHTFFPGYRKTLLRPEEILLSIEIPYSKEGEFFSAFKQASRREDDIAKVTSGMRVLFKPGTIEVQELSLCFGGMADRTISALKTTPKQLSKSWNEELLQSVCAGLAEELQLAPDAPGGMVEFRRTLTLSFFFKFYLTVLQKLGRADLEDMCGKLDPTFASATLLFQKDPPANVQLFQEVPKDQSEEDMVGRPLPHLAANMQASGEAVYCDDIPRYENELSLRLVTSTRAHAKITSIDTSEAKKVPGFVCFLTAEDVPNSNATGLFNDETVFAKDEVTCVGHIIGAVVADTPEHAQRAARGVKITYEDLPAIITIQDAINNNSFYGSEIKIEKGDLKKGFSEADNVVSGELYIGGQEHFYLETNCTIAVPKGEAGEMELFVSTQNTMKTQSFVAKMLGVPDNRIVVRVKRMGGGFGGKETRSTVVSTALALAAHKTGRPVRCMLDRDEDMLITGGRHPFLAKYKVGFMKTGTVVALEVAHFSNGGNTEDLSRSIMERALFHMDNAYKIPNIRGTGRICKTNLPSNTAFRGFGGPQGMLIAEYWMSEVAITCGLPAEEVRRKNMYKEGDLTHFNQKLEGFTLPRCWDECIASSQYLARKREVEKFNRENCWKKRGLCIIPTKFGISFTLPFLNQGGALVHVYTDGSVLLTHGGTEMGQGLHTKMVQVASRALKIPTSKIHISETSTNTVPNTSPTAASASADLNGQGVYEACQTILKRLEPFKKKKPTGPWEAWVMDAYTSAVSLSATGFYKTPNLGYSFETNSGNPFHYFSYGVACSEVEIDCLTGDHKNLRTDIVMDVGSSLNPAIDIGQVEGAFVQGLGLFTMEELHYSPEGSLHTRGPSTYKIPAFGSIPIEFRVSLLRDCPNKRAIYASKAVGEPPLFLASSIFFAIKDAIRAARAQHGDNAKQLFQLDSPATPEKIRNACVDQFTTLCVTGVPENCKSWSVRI

| Papp B→A [1] [×10⁻⁶ cm/s] | Papp A→B [2] [×10⁻⁶ cm/s] | microsomal CLint [3] [µL/min/mg] | solubility [4] [µM] | Structure (SMILES) | other results |
| --- | --- | --- | --- | --- | --- |
|  |  | 6.8 | 95 (≈ 26.2 µg/mL) | Nc1nc(-c2ccc(OCCCCO)cc2)cc(=O)[nH]1 |  |
|  |  |  | 36 (≈ 9.19 µg/mL) | Nc1nc(-c2cccc(C(F)(F)F)c2)cc(=O)[nH]1 |  |
|  |  | 3.2 | 330 (≈ 89.5 µg/mL) | Nc1nc(-c2cccc(OC(F)(F)F)c2)cc(=O)[nH]1 |  |
|  |  |  | < 1 | Nc1nc(-c2ccc(OCc3ccccc3)cc2)cc(=O)[nH]1 |  |

The remaining lines, values behind:

| Structure (SMILES) | Papp B→A [1] [×10⁻⁶ cm/s] | Papp A→B [2] [×10⁻⁶ cm/s] | microsomal CLint [3] [µL/min/mg] | solubility [4] [µM] | other results |
| --- | --- | --- | --- | --- | --- |
| Cc1cc(-c2nc(N)[nH]c(=O)c2Cl)cc(C#N)c1OCC1CCOC1 (stereo unspecified) | 35 | 2.1 | 5.3 | 83 (≈ 29.9 µg/mL) |  |
| CC(C)COc1ccc(-c2nc(N)[nH]c(=O)c2C#N)cc1C(F)(F)F | 23 | 1.7 | 8.5 | 1.2 (≈ 0.423 µg/mL) |  |
| CC(C)COc1ccc(-c2nc(N)[nH]c(=O)c2Cl)cc1C#N |  |  | 16 |  |  |
| CC(C)COc1ccc(-c2cc(=O)[nH]c(N)n2)cc1C#N |  |  | 7.9 | 140 (≈ 39.8 µg/mL) |  |
| N#Cc1cc(-c2cc(=O)[nH]c(N)n2)cc(C(F)(F)F)c1 |  |  | 0.2 | 430 (≈ 120 µg/mL) |  |
| c1ccc(-c2nn3c(-c4cnccn4)nnc3s2)cc1 |  |  |  |  | IC50 [5]: 79.4 nM |
| N#Cc1c(-c2ccc(OCC3CCOC3)c(OC(F)(F)F)c2)nc(N)[nH]c1=O (stereo unspecified) | 29 | 0.1 | 21 | 86 (≈ 34.1 µg/mL) |  |
| O=c1[nH]ccc2nc(-c3cccc(C(F)(F)F)c3)cn12 |  |  |  |  | inhibition (INH) [6]: Active; IC50 [7]: 398 nM |
| N#Cc1cc(-c2nc(N)[nH]c(=O)c2Cl)ccc1OCC1CCOC1 (stereo unspecified) | 24 | 0.2 | 3.4 | 41 (≈ 14.2 µg/mL) |  |
| N#Cc1cc(-c2nc(N)[nH]c(=O)c2Cl)ccc1OCCCCO | 25.6 | 0.2 | 1.7 | 93 (≈ 31.1 µg/mL) |  |
| CS(=O)(=O)Nc1nc(-c2ccccc2)cc(=O)[nH]1 |  |  |  |  | IC50 [8]: > 100000 nM |
| CC(=O)Nc1ccc(-c2cc(=O)[nH]c(N)n2)cc1 |  |  |  |  | CLH (Hepatocyte): 2.7 µL/min/1e6 cells |
| Nc1nc(-c2ccc(OCC3CCOC3)c(C(F)(F)F)c2)c(Cl)c(=O)[nH]1 (stereo unspecified) | 69 | 8.4 | 7.5 | 24 (≈ 9.35 µg/mL) | bioavailability [9]: 33%; Cmax [10]: 270 nM; Vdss (Rattus norvegicus [11]): 5.7 L/kg; half-life [12]: 10 h; clearance [13]: 15 mL/min/kg |
| CNc1nc(-c2ccc(OCC(C)C)c(C#N)c2)c(C#N)c(=O)[nH]1 |  |  | 3.6 | 37 (≈ 12 µg/mL) |  |
| CC(C)COc1ccc(-c2nc(N)[nH]c(=O)c2C#N)cc1C#N | 30 | 0.1 | 4.1 | 14 (≈ 4.33 µg/mL) | bioavailability [9]: 5.5%; Cmax [10]: 70 nM; Vdss (Rattus norvegicus [11]): 2.5 L/kg; half-life [12]: 19 h; clearance [13]: 1.8 mL/min/kg |
| CC(C)(C)COc1ccc(-c2nc(N)[nH]c(=O)c2C#N)cc1OC(F)(F)F | 4.1 | 0.4 | 36 | 6 (≈ 2.29 µg/mL) |  |
| Cc1cc(C#N)cc(-c2cc(=O)[nH]c(N)n2)c1 |  |  | 1.2 | 350 (≈ 79.2 µg/mL) |  |
| CC(C)COc1ccc(-c2cc(=O)[nH]c(N)n2)cc1 |  |  | 42 | 23 (≈ 5.96 µg/mL) |  |
| Oc1ncnc2[nH]ncc12 [ALLOPURINOL] |  |  |  |  | Activity (Plasma): 94%; Activity (Rattus norvegicus [14]): 87% |
| Cn1c(N)nc(-c2ccccc2)cc1=O |  |  |  |  | IC50 [8]: > 100000 nM |
| CC(C)(C)COc1ccc(-c2cc(=O)[nH]c(N)n2)cc1 |  |  | 6.9 | 3.1 (≈ 0.847 µg/mL) |  |
| Nc1nc(-c2ccc(OCC3CCOC3)c(OC(F)(F)F)c2)c(Cl)c(=O)[nH]1 (stereo unspecified) | 74 | 6.4 | 18 | 45 (≈ 18.3 µg/mL) | concentration at 2 h [15]: 370 nM; Activity (Rattus norvegicus [16]): 55%; Activity (Rattus norvegicus [17]): 54%; bioavailability [9]: 22%; Cmax [10]: 80 nM; Vdss (Rattus norvegicus [11]): 13 L/kg; half-life [12]: 13.2 h; clearance [13]: 35 mL/min/kg; IC50 [18]: 7.94 nM |
| N#Cc1cc(-c2nc(N)[nH]c(=O)c2C#N)ccc1OCC1CC1 | 31 | 0.1 | 1.7 | 45 (≈ 13.8 µg/mL) |  |
| Nc1nc(-c2ccccc2)c(Br)c(=O)[nH]1 [BROPIRIMINE] |  |  |  |  | IC50 [8]: 1000 nM |
| Cc1nc(-c2ccc(OCC(C)C)c(C#N)c2)sc1C(=O)O [FEBUXOSTAT] |  |  |  |  | concentration at 2 h [15]: 8700 nM; Activity (Rattus norvegicus [16]): 78%; Activity (Rattus norvegicus [17]): 75%; IC50 [8]: 1.26 nM; IC50 [18]: 3.98 nM |
| Nc1nc(-c2ccc(OCC3CCOC3)cc2)cc(=O)[nH]1 (stereo unspecified) |  |  | 21 | 58 (≈ 16.7 µg/mL) |  |
| COc1ccc(-c2cnc3nc[nH]c(=O)c3n2)cc1 |  |  |  |  | IC50 [8]: 15800 nM |
| CC(=O)Nc1nc(-c2ccccc2)cc(=O)[nH]1 |  |  |  |  | IC50 [8]: > 100000 nM |
